# Read-outs that look alike come from different tables or passages of the source. Where a SMILES comes first, the peptide text is derived from it. Bridges are numbered along the chain shown (N, C = ends). [ ]: non-standard residue; d: D form. The star is where a group is joined. hPhe(3-Cl-4-CF3) = N[C@@H](CCc1ccc(C(F)(F)F)c(Cl)c1)C(=O)O; NPrPhe(4-CF3) = CCCN[C@@H](Cc1ccc(C(F)(F)F)cc1)C(=O)O; NMeGly(cPent) = CN[C@H](C(=O)O)C1CCCC1; Piperidide(4-Me) = CC1CCN(*)CC1; NMeD = CN[C@@H](CC(=O)O)C(=O)O; NMeL = CN[C@@H](CC(C)C)C(=O)O; Ac5c = NC1(C(=O)O)CCCC1; Sar = CNCC(=O)O
# Assays:
# [1] = target: GDP-bound HRAS wild-type protein (Homo sapiens, UniProt P01112); assay: Binding to HRAS by surface plasmon resonance (SPR), Single Cycle Kinetics; conditions: SPR, GDP-bound HRAS wild-type protein vs GDP-bound KRAS wild-type protein
# Chain of GDP-bound HRAS wild-type protein (P01112 whole entry): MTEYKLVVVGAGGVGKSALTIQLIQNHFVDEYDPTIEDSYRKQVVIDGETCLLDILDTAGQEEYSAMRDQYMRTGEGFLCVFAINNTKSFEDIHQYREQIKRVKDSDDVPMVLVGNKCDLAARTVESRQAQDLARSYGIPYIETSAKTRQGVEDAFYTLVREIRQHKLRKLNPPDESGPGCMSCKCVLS
# [2] = target: GDP-bound NRAS wild-type protein (Homo sapiens, UniProt P01111); assay: Binding to NRAS by surface plasmon resonance (SPR), Single Cycle Kinetics; conditions: SPR, GDP-bound NRAS wild-type protein vs GDP-bound KRAS wild-type protein
# Chain of GDP-bound NRAS wild-type protein (P01111 whole entry): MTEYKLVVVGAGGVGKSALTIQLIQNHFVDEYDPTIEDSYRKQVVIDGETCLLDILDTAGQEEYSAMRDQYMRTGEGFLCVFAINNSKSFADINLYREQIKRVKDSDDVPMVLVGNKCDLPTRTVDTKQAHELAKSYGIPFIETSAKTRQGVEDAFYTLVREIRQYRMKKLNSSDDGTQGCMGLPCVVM
# [3] = target: GDP-bound KRAS wild-type protein (Homo sapiens, UniProt P01116); assay: Binding to KRAS by surface plasmon resonance (SPR), Single Cycle Kinetics; conditions: GDP-bound KRAS wild-type protein, read-out: KRAS KD
# Chain of GDP-bound KRAS wild-type protein (P01116 whole entry): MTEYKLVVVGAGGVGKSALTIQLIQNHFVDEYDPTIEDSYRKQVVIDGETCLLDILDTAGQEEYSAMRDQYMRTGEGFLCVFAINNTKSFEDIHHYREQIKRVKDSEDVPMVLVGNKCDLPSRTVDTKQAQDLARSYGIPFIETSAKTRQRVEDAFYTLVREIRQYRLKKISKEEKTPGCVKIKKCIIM
# [4] = SPR Single Cycle Kinetics, 1:1 binding model
Structure (SMILES),"Kd [3, 4] [pM]","Kd ([3]; SPR, Single Cycle Kinetics) [pM]",HRAS/KRAS (ratio of KD value with respect to HRAS to KD value with respect to KRAS) [1],NRAS/KRAS (ratio of KD value with respect to NRAS to KD value with respect to KRAS) [2],HRAS/KRAS (ratio of KD value for HRAS to KD value for KRAS) [1],NRAS/KRAS (ratio of KD value for NRAS to KD value for KRAS) [2]
C=CC[C@H]1C(=O)N[C@@H]([C@@H](C)CC)C(=O)N(C)CC(=O)N(C)[C@H]2CCCCN(C2=O)[C@@H](Cc2ccc(C(F)(F)F)cc2)C(=O)N(C)CC(=O)N[C@@H](CCc2cc(F)c(C(F)(F)F)c(F)c2)C(=O)N2C[C@H](OCC)C[C@H]2C(=O)NC2(CCC2)C(=O)N(C)[C@@H](C2CCCC2)C(=O)N(C)[C@H](C(=O)N2CCOCC2)CC(=O)N1C [PP0710],29,,B (a compound having 3 or more and less than 10 is denoted as B),C (A compound having a KD ratio of 0.1 or more and less than 3 is denoted as C),,
"CCO[C@@H]1C[C@H]2C(=O)NC3(CCC3)C(=O)N(C)[C@@H](C3CCCC3)C(=O)N(C)[C@H](C(=O)N(C)C)CC(=O)N(C)[C@@H](C(C)C)C(=O)N[C@@H]([C@@H](C)CC)C(=O)N(C)CC(=O)N(C)[C@H]3C/C=C\CCN(C3=O)[C@@H](Cc3ccc(C(F)(F)F)cc3)C(=O)N(C)CC(=O)N[C@@H](CCc3cc(F)c(C(F)(F)F)c(F)c3)C(=O)N2C1 [PP1109, (2S,8S,12R,14S,20S,23S,27S,30S,36S,38Z)-20-cyclopentyl-8-[2-[3,5-difluoro-4-(trifluoromethyl)phenyl]ethyl]-12-ethoxy-27-isopropyl-N,N,4,19,22,26,32,35-octamethyl-30-[(1S)-1-methylpropyl]-3,6,9,15,18,21,25,28,31,34,42-undecaoxo-2-[[4-(trifluoromethyl)phenyl]methyl]spiro[1,4,7,10,16,19,22,26,29,32,35-undecazatricyclo[34.5.1.0^10,14]dotetracont-38-ene-17,1′-cyclobutane]-23-carboxamide]",,120,,,B (a compound having 3 or more and less than 10 is denoted as B),A (a compound having 10 or more and less than 20 is denoted as A)
C#CC[C@H]1C(=O)N[C@@H]([C@@H](C)CC)C(=O)N(C)CC(=O)N(C)[C@H]2C/C=C\CCN(C2=O)[C@@H](Cc2ccc(C)cc2)C(=O)N(C)CC(=O)N[C@@H](CCc2ccc(C(F)(F)F)c(Cl)c2)C(=O)N2CC3(CC3)C[C@H]2C(=O)NC2(CC(C)(C)C2)C(=O)N(C)[C@@H](C2CCCC2)C(=O)N(C)[C@H](C(=O)N(C)C)CC(=O)N1C [PP2982],,160,,,A (a compound having 10 or more and less than 20 is denoted as A),A (a compound having 10 or more and less than 20 is denoted as A)
CCO[C@@H]1C[C@H]2C(=O)NC3(CCC3)C(=O)N(C)[C@@H](C3CCCC3)C(=O)N(CCc3ccccc3)[C@H](C(=O)N(C)C)CC(=O)N(C)[C@@H](CC)C(=O)N[C@@H]([C@@H](C)CC)C(=O)N(C)CC(=O)N(C)[C@H]3CCCCN(C3=O)[C@@H](Cc3ccc(C(F)(F)F)cc3)C(=O)N(C)CC(=O)N[C@@H](CCc3cc(F)c(C(F)(F)F)c(F)c3)C(=O)N2C1 [PP0647],680,,B (a compound having 3 or more and less than 10 is denoted as B),C (A compound having a KD ratio of 0.1 or more and less than 3 is denoted as C),,

# Now from value to compound, other results behind:
"Kd [3, 4] [pM]","Kd ([3]; SPR, Single Cycle Kinetics) [pM]",Structure (SMILES),HRAS/KRAS (ratio of KD value with respect to HRAS to KD value with respect to KRAS) [1],NRAS/KRAS (ratio of KD value with respect to NRAS to KD value with respect to KRAS) [2],HRAS/KRAS (ratio of KD value for HRAS to KD value for KRAS) [1],NRAS/KRAS (ratio of KD value for NRAS to KD value for KRAS) [2]
550,,CCCN1C(=O)CN(C)C(=O)CN(C)C(=O)[C@H]([C@@H](C)CC)NC(=O)[C@H](CC(C)C)N(C)C(=O)C[C@@H](C(=O)N2CCC(C)CC2)N(C)C(=O)[C@H](C2CCCC2)N(C)C(=O)C2(CCCC2)NC(=O)[C@@H]2CCCN2C(=O)[C@H](CCc2ccc(C(F)(F)F)c(Cl)c2)NC(=O)CN(C)C(=O)[C@@H]1Cc1ccc(C(F)(F)F)cc1 [PP0176] ([NMeL]I[Sar][Sar][NPrPhe(4-CF3)][Sar][hPhe(3-Cl-4-CF3)]P[Ac5c][NMeGly(cPent)][NMeD]-{Piperidide(4-Me)}; lactam N-11),,,C (A compound having a KD ratio of 0.1 or more and less than 3 is denoted as C),B (a compound having 3 or more and less than 10 is denoted as B)
,110,CCCCO[C@@H]1C[C@H]2C(=O)NC3(CCC3)C(=O)N(C)[C@@H](C3CCCC3)C(=O)N(C)[C@H](C(=O)N3CCOCC3)CC(=O)N(C)[C@@H](CC(C)C)C(=O)N[C@@H]([C@@H](C)CC)C(=O)N(C)CC(=O)N(C)[C@H]3CCCCN(C3=O)[C@@H](Cc3ccc(C(F)(F)F)cc3)C(=O)N(C)CC(=O)N[C@@H](CCc3cc(F)c(C(F)(F)F)c(F)c3)C(=O)N2C1 [PP0999],,,B (a compound having 3 or more and less than 10 is denoted as B),C (A compound having a KD ratio of 0.1 or more and less than 3 is denoted as C)

# Source: US20240158446A1, “CYCLIC COMPOUND HAVING SELECTIVE INHIBITORY ACTION ON KRAS OVER HRAS AND NRAS” (CHUGAI SEIYAKU KABUSHIKI KAISHA, priority 2021, published 2024)
